≈ marks a conversion by molar mass, not a printed value.
Experiments:
A549 = assay: Cytotoxicity against A549 cells after 72 hrs by MTT assay; type: cell-based; details: human, a549, 72 h
HL-60 = assay: Cytotoxicity against HL60 cells after 72 hrs by MTT assay; type: cell-based, Homo sapiens
[1] = Cytotoxicity against BEL-7402 cells after 72 hrs by MTT assay; type: cell-based, Homo sapiens
P388 = assay: Cytotoxicity against P388 cells after 72 hrs by MTT assay; type: cell-based, Mus musculus; details: for IC50: Mus musculus, P388, 72 h

SMILES: CO[C@@]1(CC(C)C)NC(=O)[C@H](CCC(N)=O)n2c1nc1ccccc1c2=O [AURANTIOMIDE A]
- Activity (A549): Not Active
- Activity (HL-60; human, hl-60, 72 h): Not Active
- Activity ([1]; human, bel-7402, 72 h): Not Active
- Activity (P388; mouse, p388, 72 h): Not Active

SMILES: CC(C)C[C@]1(O)NC(=O)[C@H](CCC(N)=O)n2c1nc1ccccc1c2=O [AURANTIOMIDE B]
- IC50 (HL-60; Homo sapiens, HL-60, 72 h): 52 µg/mL (≈ 145 µM)
- IC50 (P388): 54 µg/mL (≈ 151 µM)

SMILES: CC(C)/C=C1\NC(=O)[C@H](CCC(N)=O)n2c1nc1ccccc1c2=O [AURANTIOMIDE C]
- IC50 ([1]; Homo sapiens, Bel-7402, 72 h): 48 µg/mL (≈ 141 µM)
- IC50 (P388): 48 µg/mL (≈ 141 µM)

— ChEMBL document CHEMBL1139882, “Aurantiomides A-C, quinazoline alkaloids from the sponge-derived fungus Penicillium aurantiogriseum SP0-19” (J Nat Prod, 2007)
